The values below are quoted from earlier work in US6726673B1, “Methods and apparatus for improved administration of testosterone pharmaceuticals” (Zars, Inc., priority 1999, dated 2004).

The conditions of this series: following intramuscular injection, absorbed gradually from the lipid tissue phase at the injection site.

On to `CCCCCCC(=O)O[C@H]1CC[C@H]2[C@@H]3CCC4=CC(=O)CC[C@]4(C)[C@H]3CC[C@]12C` [testosterone enanthate], for which the duration of action was 2-4 weeks.
